From patent US7071355B2, “Compounds as anti-inflammatory, immunomodulatory and anti-proliferatory agents” (4 SC AG, priority 2002, dated 2006)

Biological target: human DHODH (Homo sapiens, UniProt Q02127)
Assay: Inhibition assay of DHODH activity
Assay type: biochemical
Conditions: recombinant human DHODH; 50 μM decyclo ubichinone, 100 μM dihydroorotate, 60 μM 2,6-dichloroindophenol; pH 8.0, 30° C.

Chain of human DHODH (Q02127 whole entry): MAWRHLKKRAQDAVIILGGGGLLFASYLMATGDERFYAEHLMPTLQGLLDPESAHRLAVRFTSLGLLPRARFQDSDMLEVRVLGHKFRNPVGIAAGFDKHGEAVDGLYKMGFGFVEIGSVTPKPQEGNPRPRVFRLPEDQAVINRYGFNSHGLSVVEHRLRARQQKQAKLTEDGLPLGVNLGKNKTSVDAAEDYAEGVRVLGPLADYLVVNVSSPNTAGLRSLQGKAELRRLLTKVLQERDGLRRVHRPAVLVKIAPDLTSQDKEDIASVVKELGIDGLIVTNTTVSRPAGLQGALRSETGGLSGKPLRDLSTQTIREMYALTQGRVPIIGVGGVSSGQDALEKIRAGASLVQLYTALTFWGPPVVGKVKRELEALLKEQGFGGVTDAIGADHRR

O=C(O)C1=C(C(=O)Nc2c(F)cc(-c3ccccc3F)cc2F)CCC1O (centres unmarked) [Example 12, 5-Hydroxy-2-(3,5,2′-trifluoro-biphenyl-4-ylcarbamoyl)-cyclopent-1-enecarboxylic acid] gave an IC50 of less than 1000 nM.

COc1cccc(-c2ccc(NC(=O)C3=C(C(=O)O)C(O)CC3)c(F)c2)c1 (centres unmarked) [Example 18, 2-(3-Fluoro-3′-methoxy-biphenyl-4-ylcarbamoyl)-5-hydroxy-cyclopent-1-enecarboxylic acid] showed an IC50 of less than 1000 nM.
